Reference: patent US4895841A (priority 1987, dated 1990)
Counter-ions that a name gives are not always drawn.

Biological target: T1, acetylcholinesterase (Mus musculus, UniProt P21836)
T1 construct: A mouse brain homogenate was used as an acetylcholinesterase source; from tissue; host or cells: mouse brain homogenate
Experiment: biochemical
Format: biochemical
Settings: not given

T1 sequence (P21836 32-614): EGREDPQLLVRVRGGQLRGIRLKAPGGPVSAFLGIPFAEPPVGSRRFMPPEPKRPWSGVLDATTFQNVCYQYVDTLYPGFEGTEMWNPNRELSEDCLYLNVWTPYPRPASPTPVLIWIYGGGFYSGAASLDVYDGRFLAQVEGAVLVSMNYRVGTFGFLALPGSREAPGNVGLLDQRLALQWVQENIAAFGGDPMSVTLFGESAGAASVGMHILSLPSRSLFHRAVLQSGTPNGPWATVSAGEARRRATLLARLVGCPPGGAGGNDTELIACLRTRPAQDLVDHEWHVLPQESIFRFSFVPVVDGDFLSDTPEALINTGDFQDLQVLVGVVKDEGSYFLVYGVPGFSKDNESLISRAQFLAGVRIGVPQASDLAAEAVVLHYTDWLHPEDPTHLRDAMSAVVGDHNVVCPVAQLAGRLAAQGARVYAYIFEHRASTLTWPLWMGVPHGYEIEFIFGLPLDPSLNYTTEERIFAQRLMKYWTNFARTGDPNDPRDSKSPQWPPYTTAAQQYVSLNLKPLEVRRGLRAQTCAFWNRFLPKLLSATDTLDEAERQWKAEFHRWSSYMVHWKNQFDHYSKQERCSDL

| SMILES | IC50 [nM] |
| --- | --- |
| COc1cc2c(cc1OC)C(=O)N(CCC1CCN(Cc3ccccc3)CC1)C2 [Example 6, 2-[4'-Benzylpiperidine)ethyl]-2,3-dihydro-5,6-dimethoxyoxypyrrolo[3,4-]benzene hydrochloride] | 17 |
| CCOc1cc2c(cc1OCC)C(=O)C(CC1CCN(Cc3ccccc3)CC1)C2 (centres unmarked) [Example 198] | 5.4 |
| COc1cc2c(cc1OC)C(=O)C(CC1CC[N+]([O-])(Cc3ccccc3)CC1)C2 (centres unmarked) [Example 226] | 4.9 |
| COc1cc2c(cc1OC)C(=O)N(C)C(CCC1CCN(Cc3ccccc3)CC1)C2 (centres unmarked) [Example 67] | 100 |
| CCOC(=O)N1CCC(CC2Cc3cc(OC)c(OC)cc3C2=O)CC1 (centres unmarked) [Example 182, 4-[(5,6-Dimethoxy-1-indanon)-2-yl]methyl-1-ethoxycarbonylpiperidine] | 800 |
| O=C1c2cccnc2CN1CCC1CCN(Cc2ccccc2)CC1 [Example 5, 2-[4'-(1'-Benzylpiperidine)ethyl]-2,3-dihydro-1-oxypyrrolo[3,4-b]pyridine dihydrochloride] | 100 |
| COc1cc2c(cc1O)C(=O)C(CC1CCNCC1)C2 (centres unmarked) [Example 245] | 5000 |
| COc1cccc(CN2CCC(CC3Cc4cc(OC)c(OC)cc4C3=O)CC2)c1 (centres unmarked) [Example 235] | 220 |
| CC(CC1CCN(Cc2ccccc2)CC1)C(=O)c1ccccc1 (centres unmarked) [Example 202] | 1200 |
| O=C1C(=CC2CCN(Cc3ccccc3)CC2)C(=O)c2ccccc21 [Example 184, 1-Benzyl-4-[(1,3-indanedion)-2-ylidenyl]methylpiperidine] | > 5000 |
| COc1ccc2c(c1OC)C(=O)C(=CC1CCN(Cc3ccccc3)CC1)C2 [Example 209] | 430 |
| CC(=O)N(CCC1CCN(Cc2ccccc2)CC1)c1ccncc1 [Example 101] | 110 |
| COc1cc2c(cc1OC(C)C)CC(CC1CCN(Cc3ccccc3)CC1)C2=O (centres unmarked) [Example 203] | 9 |
| COc1ccc(CN2CCC(CC3Cc4cc(OC)c(OC)cc4C3=O)CC2)cc1OC (centres unmarked) [Example 243] | 4000 |
| COc1cc2c(cc1OC(C)C)CC(=CC1CCN(Cc3ccccc3)CC1)C2=O [Example 221] | 33 |
| Cc1ccc2c(c1)C(=O)C(=CC1CCN(Cc3ccccc3)CC1)C2 [Example 212] | 500 |
| COc1ccc(CN2CCC(CC3Cc4cc(OC)c(OC)cc4C3=O)CC2)cc1 (centres unmarked) [Example 236] | 3600 |
| O=C1C(=CC2CCN(Cc3ccccc3)CC2)Cc2ccc(F)cc21 [Example 211] | 2000 |
| CN(CCC1CCN(Cc2ccccc2)CC1)C(=O)c1ccco1 [Example 120] | 190 |
| COc1ccc2c(c1)CCCC(=O)N2CCC1CCN(Cc2ccccc2)CC1 [Example 62] | 7.5 |
| O=C(CCC1CCN(Cc2ccccc2)CC1)Nc1ccncc1 [Example 48] | 19 |
| O=C1C(=CC2CCN(Cc3ccccc3)CC2)Cc2cc3c(cc21)OCO3 [Example 217] | 140 |
| CN1CC(=O)N(CCC2CCN(Cc3ccccc3)CC2)c2ccccc2C1 [Example 9, 1-[4'-(1'-Benzylpiperidine)ethyl-1,2,3,4-tetrahydro-4-methyl-5H-[1,4]-benzodiazepin-2-one dihydrochloride] | 51 |
| COc1cc2c(cc1OC)C(=O)C(CCCC1CCN(Cc3ccccc3)CC1)C2 (centres unmarked) [Example 187, 1-Benzyl-4-[3-[(5,6-dimethoxy-1-indanon)-2-yl]]propylpiperidine hydrochloride] | 4400 |
| COc1cc2c(c(OC)c1OC)C(=O)C(=CC1CCN(Cc3ccccc3)CC1)C2 [Example 210] | 60 |
| COc1cc2c(cc1OC)C(=O)C(C(C1CCN(Cc3ccccc3)CC1)C1Cc3cc(OC)c(OC)cc3C1=O)C2 (centres unmarked) [Example 249] | 620 |
| CC(=CC1CCN(Cc2ccccc2)CC1)C(=O)c1ccccc1 [Example 220] | 11000 |

| SMILES | IC50 [nM] |
| --- | --- |
| Cc1cccc2c1CC(=CC1CCN(Cc3ccccc3)CC1)C2=O [Example 213] | 50 |
| COc1cc2c(cc1OC)C(=O)C(=CCCCCC1CCN(Cc3ccccc3)CC1)C2 [Example 223] | 5.4 |
| COc1cccc2c1CC(=CC1CCN(Cc3ccccc3)CC1)C2=O [Example 207] | 49 |
| O=C1c2ccccc2Oc2ccccc2N1CCC1CCN(Cc2ccccc2)CC1 [Example 176] | 4 |
| COc1cc2c(cc1OC)C(=O)C(CC1CCN(Cc3ccc4ccccc4c3)CC1)C2 (centres unmarked) [Example 242] | 2900 |
| O=C(CCCC1CCN(Cc2ccccc2)CC1)c1ccncc1 [Example 45] | 360 |
| COc1cc2c(cc1OC)C(=NNc1ccc([N+](=O)[O-])cc1[N+](=O)[O-])C(CC1CCN(Cc3ccccc3)CC1)C2 (centres unmarked) [Example 246] | 4400 |
| O=C(NCCC1CCN(Cc2ccccc2)CC1)c1ccoc1 [Example 24, N-[4'-(1'-Benzylpiperidine)ethyl]-3-furancarboxylic amide hydrochloride] | 1100 |
| O=C1c2cc3c(cc2CC1CC1CCN(Cc2ccccc2)CC1)OCO3 (centres unmarked) [Example 199] | 23 |
| Cc1cccc2c1CC(CC1CCN(Cc3ccccc3)CC1)C2=O (centres unmarked) [Example 195] | 7.1 |
| COc1cc(OC)cc(N(CCC2CCN(Cc3ccccc3)CC2)C(=O)C=Cc2ccc(F)cc2)c1 [Example 18, N-(3'5'-Dimethoxyphenyl)-N-[4'-(1'--benzylpiperidyl)-ethyl]-4-fluorocinnamamide hydrichloride] | 680 |
| O=C(c1cnccn1)N(CCC1CCN(Cc2ccccc2)CC1)c1ccccc1 [Example 95] | 85 |
| COc1cc2c(cc1OC)C(=O)C(CC1CCN(Cc3cccc(OCc4ccccc4)c3)CC1)C2 (centres unmarked) [Example 237] | 2600 |
| COc1cc2c(cc1OC)C(=O)C(CC1CCN(Cc3cccnc3)CC1)C2 (centres unmarked) [Example 238] | 72 |
| O=C(NCCC1CCN(Cc2ccco2)CC1)c1ccccc1 [Example 124] | 2800 |
| COc1cccc2c1CCCC(=O)N2CCC1CCN(Cc2ccccc2)CC1 [Example 65] | 1.6 |
| COc1cc2c(cc1OC)C(=O)C(CC1CCN(Cc3cc(OC)c(OC)c(OC)c3)CC1)C2 (centres unmarked) [Example 244] | 4900 |
| COc1cc2c(cc1OC)C(=O)C(=CCCC1CCN(Cc3ccccc3)CC1)C2 [Example 186, 1-Benzyl-4-[3-[(5,6-dimethoxy-1-indanon)-2-ylidenyl]]propylpiperidine hydrochloride] | 1.5 |
| O=C(NCC1CCN(Cc2ccccc2)C1)c1ccccc1 (centres unmarked) [Example 21, N-[3'-(1'-Benzylpyrrolidine)methyl]benzamide hydrochloride] | 50000 |
| O=C1CCCc2ccccc2N1CCC1CCN(Cc2ccccc2)CC1 [Example 10, 1-[4'-(1'-Benzylpiperidine)ethyl]-1,2,3,4-tetrahydro-5H-1-benzazepin-2-one hydrochloride] | 9 |
| COc1cc2c(cc1OC)C(=O)C(NC1CCN(Cc3ccccc3)CC1)C2 (centres unmarked) [Example 248] | 1400 |
| COc1cc2c(cc1OC)C(=O)C(=CC=CC1CCN(Cc3ccccc3)CC1)C2 [Example 224, 1-benzyl-4-((5,6-dimethoxy-1-oxoindanon)-2-yl)propenylpiperidine] | 3 |
| COc1cc2c(cc1O)C(=O)C(CC1CCN(Cc3ccccc3)CC1)C2 (centres unmarked) [Example 196] | 1.3 |
| CCOc1cc2c(cc1OCC)C(=O)C(=CC1CCN(Cc3ccccc3)CC1)C2 [Example 216] | 17 |
| COc1cc2c(cc1OC)C(=O)C(CC1CCN(Cc3ccc(O)cc3)CC1)C2 (centres unmarked) [Example 234] | 1.8 |
| O=C1C(=CC2CCN(Cc3ccccc3)CC2)CCc2ccccc21 [Example 218] | 20000 |
| O=C(NCCC1CCN(Cc2ccc(O)cc2)CC1)c1cnc2ccccc2n1 [Example 14, N-[4'-(1'-(p-Hydroxybenzyl)piperidine)ethyl]-2-quinoxalinecarboxylic amide hydrochloride] | 38 |

Same assay, conditions: in vitro, mouse brain homogenate; Table 10; read-out: Inhibitory activity on AChE IC50

| SMILES | IC50 [nM] |
| --- | --- |
| COc1cc2c(c(OC)c1OC)C(=O)C(CC1CCN(Cc3ccccc3)CC1)C2 (centres unmarked) [Example 192] | 13 |
| COc1cc2c(cc1OC)C(=O)C(CC1CCNCC1)C2 (centres unmarked) [Example 179, 4-[(5,6-Dimethoxy-1-indanon)-2-yl]methylpiperidine hydrochloride] | 5400 |
| COc1cc2c(cc1OC)C(=O)C(CC1CCN(Cc3ccc(C)cc3)CC1)C2 (centres unmarked) [Example 229] | 40 |

Same assay, conditions: read-out: AChE inhibitory activity IC50

| SMILES | IC50 [nM] |
| --- | --- |
| O=C1Cc2ccccc2CN1CCC1CCN(Cc2ccccc2)CC1 [Example 56] | 17 |
| COc1cc2c(c(OC)c1)C(=O)C(CC1CCN(Cc3ccccc3)CC1)C2 (centres unmarked) [Example 31] | 25 |
| O=C1c2ccccc2NCN1CCC1CCN(Cc2ccccc2)CC1 [Example 52] | 800 |
| O=C(CCC1CCN(Cc2ccccc2)CC1)Nc1ccccc1 [Example 20, 4-(1-Benzylpiperidine)propanailide hydrochloride] | 540 |
| O=C1c2ccccc2CCN1CCC1CCN(Cc2ccccc2)CC1 [Example 54] | 1000 |
| O=C1c2ccccc2CCc2ccccc2N1CCC1CCN(Cc2ccccc2)CC1 [Example 11, N-[4-(1'-Benzylpiperidyl)ethyl]-5,6,11,12-tetrahydrodibenzo[b,f]azocin-6-one hydrochloride] | 68 |
| COc1ccc(C(=O)CCCC2CCN(Cc3ccccc3)CC2)cc1 [Example 23, 4-[4'-N-Benzyl)piperidyl]-p-methoxybutyrophenone hydrochloride] | 72 |

Same assay, conditions: read-out: Inhibitory activity on AChE IC50

| SMILES | IC50 [nM] |
| --- | --- |
| COc1cc2c(cc1OC)C(=O)C(CN1CCC(Cc3ccccc3)CC1)C2 (centres unmarked) [Example 225] | 480 |
| COc1cc2c(cc1OC)C(=O)C(CCCCC1CCN(Cc3ccccc3)CC1)C2 (centres unmarked) [Example 204] | 35 |
| COc1ccc2c(c1)C(=O)C(=CC1CCN(Cc3ccccc3)CC1)C2 [Example 206] | 410 |
| COc1ccc2c(c1)C(=O)C(CC1CCN(Cc3ccccc3)CC1)C2 (centres unmarked) [Example 188] | 81 |
| COc1cccc2c1CC(CC1CCN(Cc3ccccc3)CC1)C2=O (centres unmarked) [Example 189] | 12 |
| COc1cc2c(cc1OC)C(=O)C(CC1CCN(Cc3ccccc3[N+](=O)[O-])CC1)C2 (centres unmarked) [Example 230] | 160 |
| COc1cc2c(cc1OC)C(=O)C(CCCCCC1CCN(Cc3ccccc3)CC1)C2 (centres unmarked) [Example 205] | 14 |
